Key:
[1] = test system: Over-Wintered Boll Weevils; test: Competitive field test with over-wintered boll weevils, 3 weeks; format: in vivo, Anthonomus grandis; details: trans-2-hexen-1-ol 10 mg changed weekly, grandlure Hercon wafer 2.5 mg kept 3 wk
Experimental: The efficacy of the synergist in enhancing response of over-wintered boll weevils to grandlure was evaluated during the first 3 wks of May 1988, prior to the planting of cotton. In this experiment, the synergist trans-2-hexen-1-ol at 10 mg was released from a cigarette filter, in combination with a Hercon wafer formulation of grandlure at 2.5 mg. The grandlure formulation remained in the trap for the entire 3-wk period, while the cigarette filter containing the synergist was changed each week. During both the first and second weeks, trap captures increased for both the pheromone alone and for the pheromone+the synergist, presumably reflecting increasing numbers of boll weevils emerging from over-wintering sites (Table VII). However, while trap captures continued to increase for the pheromone+synergist during the third week, the number of boll weevils captured by the pheromone alone declined.

[2] = test system: Arizona boll weevils; test: Arizona initial field experiment, 24 traps in a straight line, four treatments; format: in vivo, Anthonomus grandis; details: 1, 10, 100 mg with grandlure 1 mg
Experimental: Since boll weevils in this region differ genetically from those in the southeastern United States [Burke, Texas Agric. Exp. Sta. Tech. Rep., 152 pp. (1968)], these tests were performed to determine if green leaf volatiles would also enhance capture of Arizona boll weevils in traps baited with the aggregation pheromone.
In the initial field experiment, 24 traps were placed 30 m apart in a straight line along a road near Phoenix and were baited with four different treatments: 1) grandlure 1 mg; 2) grandlure 1 mg+trans-2-hexen-1-ol 1 mg; 3) grandlure 1 mg+trans-2-hexen-1-ol 10 mg; 4) grandlure 1 mg+trans-2-hexen-1-ol 100 mg. All compounds were released from cigarette filters after mixing in a solution to retard their rate of release, as previously described [McKibben et al., supra]. Treatments were arranged in six blocks with the four treatments randomized within each block. Traps were checked the next day.

[3] = test system: Boll Weevils; test: Competitive field test with released weevils, four trap array; format: in vivo, Anthonomus grandis
From the text: The second series of experiments involved an array of four traps. […] The two treatments being tested simultaneously in this competitive arrangement were placed alternately in the traps, i.e., the two traps baited with the same treatment were located diagonally from each other. Odorants diluted in hexane were released from glass capillaries placed in small vials in a container in each trap. […] Traps were then immediately baited. In each test, traps were checked and insects were removed at 1530 hrs and 1700 hrs on the day of release, and before 0900 hrs the next day (the time at which the test was terminated) in order to remove those insects which might have responded prior to darkness on the day of release.

[4] = test system: Single Olfactory Cells Responsive to Volatiles Emanating from a Crushed Cotton Square; test: Single-cell electrophysiology: action potentials from single olfactory cells; format: cell-based, Anthonomus grandis
From the text: Single-cell recording techniques are described in detail elswhere [Dickens, Mitt. Schweiz. Entomol. Ges. 52: 203 (1979); Dickens et al., J. Chem. Ecol. 10: 583 (1984)]. In brief, microelectrodes used for recordings were constructed from 50.8 μm diameter tungsten wire electrolytically sharpened to a tip of 1-2 μm. The recording electrode was positioned under optical control (150-200 X) with a Leitz high-power micromanipulator near either the base of one of the three sensory bands encircling the club, or the base of an individual sensillum just distal to each sensory band region. The ground electrode was inserted in either the rostrum or distal end of the scape. Action potentials were amplified and conditioned by a Grass P-15 preamplifier and Tektronix 5A22N amplifier prior to visualization on a Tektronix 5223 digitizing oscilloscope. The signal then passed through a Teac R51-D data recorder for recording on cassette tapes prior to visualization on a Tektronix 5111 analog oscilloscope. Data were photographed from the analog oscilloscope with a Tektronix C-5C oscilloscope camera. Trains of action potentials were counted visually.
Upon obtaining a single cell preparation, odorous stimuli were presented every 3 min. […] The first two stimuli tested were volatiles emanating from 1 μg of grandlure, followed by volatiles emanating from a crushed cotton square. These two stimuli served to determine whether the cell was activated by the attractive pheromone of the boll weevil and/or volatiles emanating from its food source.

[5] = test system: Boll Weevils; test: Competitive field test with released weevils, triangular trap array; format: in vivo, Anthonomus grandis
Experimental: Two series of field tests were performed involving released boll weevils, in which grandlure was placed in competition with grandlure + the synergist. In the first series of experiments, a triangular array of traps was used. One trap was placed at each corner of a 20 m equilateral triangle (total of three traps). The three treatments released in this triangular array of traps were: 1) grandlure 3 mg; 2) grandlure 3 mg+synergist 100 mg; and 3) synergist 100 mg. The three synergists tested in these experiments were: trans-2-hexen-1-ol, 1-hexanol, and cis-3-hexen-1-ol. Cigarette filters were used to release the experimental odorants. One hundred insets (50 males and 50 females) were released along a line 20 m from each side of the triangle (300 insects total) at ca. 1000 hrs prior to baiting of the traps at 1200 hrs. Traps were check and insects were removed at 1400 hrs, 1600 hrs, and 1800 hrs, the times at which the test was terminated.

[6] = test system: Boll Weevils; test: Competitive field tests in Mississippi cotton fields, 4-week test period; format: in vivo, Anthonomus grandis; details: 10 mg and 100 mg, P<0.01, paired t-test
Experimental: Three cotton fields were used in this study to determine the effectiveness of trans-2-hexen-1-ol in synergizing grandlure in a practical situation. The experimental design consisted of placing four traps at the corners of a 20-m square within a cotton field of ca. 1 acre. Four additional traps were placed a few meters outside the cotton field, located near imaginary diagonal lines extending through the corners of the square within the field. Each trap contained a cigarette filter with 1 mg of grandlure. Cigarette filters containing trans-2-hexen-1-ol were placed alternately in the traps. The result resembled an “X” array of traps placed across each field with each arm of the “X” consisting of four traps, two within and two outside of the field. Traps within one arm contained grandlure 1 mg alone; those within the other arm were baited with grandlure 1 mg+trans-2-hexen-1-ol at a particular dosage. Only one dosage of the synergist occurred in each field. Dosages of trans-2-hexen-1-ol tested were: 1 mg, 10 mg, and 100 mg. Traps were freshly baited each week and checked daily at 1500 hrs for 3 days and at the end of the week.

[7] = test system: Arizona boll weevils; test: Arizona third field experiment, traps around 20 cotton fields; format: in vivo, Anthonomus grandis; details: grandlure 5 mg + trans-2-hexen-1-ol 10 mg
Experimental: In a third field experiment, 20 cotton fields were selected. Three traps were placed at least 100 m apart along the edge of each field (60 traps total). The three traps were baited with one of the following treatments: 1) a 10-mg grandlure “Hercon” wafer; 2) 5 mg of grandlure in the same “Hercon” formulation; 3) the 5-mg grandlure
formulation+10 mg of trans-2-hexen-1-ol. The traps were checked daily and weevils were removed for the next 2 days.

[8] = volatiles emanating from 1 μg of odorant, cell responsive to crushed cotton square

CCC/C=C/CO [trans-2-hexen-1-ol]
effect of the synergist on effectiveness of the pheromone with time [1]: extend the effectiveness of the pheromone
effect of addition on trap capture over grandlure alone [2]: enhanced trap capture
trap capture in combination with grandlure (0.8 mg) in competition with grandlure (0.8 mg) alone ([3]; 0.1 mg, P<0.10, paired t-test): increased trap capture
synergism with grandlure (0.8 mg) in competition with grandlure (0.8 mg) alone ([3]; 1.0 mg of the compound): even more apparent
effectiveness in combination with grandlure (0.8 mg) vs the combination with 1-hexanol ([3]; each presented with grandlure 0.8 mg in a competitive experiment): more effective
response of cells activated by volatiles from the crushed cotton square ([4]; single olfactory cells): activated
Response in impulses/initial 500 msec, Cell #1 [4, 8]: 83 impulses/initial 500 msec
Response in impulses/initial 500 msec, Cell #2 [4, 8]: 67 impulses/initial 500 msec
Response in impulses/initial 500 msec, Cell #3 [4, 8]: 50 impulses/initial 500 msec
Response in impulses/initial 500 msec, Cell #4 [4, 8]: 33 impulses/initial 500 msec
% Total ([5]; grandlure 3 mg vs trans-2-hexen-1-ol 100 mg vs both): 5.9%
Mean Trap Capture ([5]; grandlure 3 mg vs trans-2-hexen-1-ol 100 mg vs both, three replicates): 1.3 A
activity alone in competition with the other treatments ([5]; triangular array, 100 mg alone): relatively inactive
attraction of grandlure on addition of the compound, relative to grandlure alone ([5]; triangular array, grandlure 3 mg, synergist 100 mg): significantly increased
weevils captured in combination with grandlure 1 mg vs grandlure alone at 1 mg [6]: captured more weevils of both sexes
effect of addition to grandlure on attractiveness over the 10-mg grandlure treatment [7]: enhanced its attractiveness

— patent US6413508B1, “Green leaf volatiles as synergists for insect pheromones” (The United States of America as represented by the …, priority 1988, dated 2002)
